Test results: PMC10764104, “Discovery of Molecular Glue Degraders via Isogenic Morphological Profiling” (ACS Chemical Biology, 2023)

Biological target: T1, recombinant DDB1-CRBN (Homo sapiens, UniProt Q96SW2)
T1 construct: His; made in house; host or cells: High Five insect cells (baculovirus made and propagated in SF9 cells)
Assay: Fluorescence polarization-based competition assay for CRBN binding
Settings: 200 nM CRBN-DDB1, 20 nM pomalidomide-fluorescein tracer 16, triplicates; read-out: FP_CRBN_binding: CRBN binding affinity, EC50
Procedure: Prior to screening the compound library in the isogenic CPA, we assessed their CRBN binding affinities using a fluorescence-polarization-based competition assay with recombinant DDB1-CRBN and the fluorescent tracer 16 (Figure S2). […] We also assessed the cytotoxicity of the CRBN binders in RKO wild-type (WT) cells to determine the appropriate treatment concentration. […]
Fluorescence Polarization‐based competition assay
Fluorescence Polarization assays were performed in 384‐well, Low Volume, Black, Round Bottom, Polystyrene Nonbinding surface Microplates (Corning, #4514). The test compounds were incubated with 200 nM CRBN‐DDB1 and 20 nM Pomalidomide‐fluorescein tracer 16 in 50 mM Tris‐HCl pH 7.5, 200 mM NaCl, 1 mM DTT, 0.02% Triton X‐ 100, and 0.1 µg/µL Bovine Serum Albumin (Sigma Aldrich, #A7030) in a total volume of 25 µL. Fluorescence polarization values were determined with a PerkinElmer Envision reader with FITC FP dual mirror and FITC FP 480 excitation filter and FITC FP 535 emission filters. Fluorescence polarization values of a 10x serial dilution (10 nM to 100 µM) of the test compounds were determined in triplicates. EC50 values were calculated with GraphPad Prism software (version 10.0.2) with a non‐linear fit function (4PL sigmoidal curve fit) adjusting the bottom constrain to the FP value of free tracer. […]

| Compound | EC50 [nM] |
| --- | --- |
| C[C@@H](O)CN(C)S(=O)(=O)Oc1cccc(Nc2ccc3c(c2)C(=O)N(C2CCC(=O)NC2=O)C3=O)c1 (stereo partly shown) [FL1-1] | 321 |
| CC(C)(O)C1CCN(S(=O)(=O)Oc2cccc(Nc3ccc4c(c3)C(=O)N(C3CCC(=O)NC3=O)C4=O)c2)C1 (stereo not shown) [FL1-4] | 481 |
| O=C1CCC(N2C(=O)c3ccc(Nc4cccc(OS(=O)(=O)N5CCOCC5)c4)cc3C2=O)C(=O)N1 (stereo not shown) [FL1-5] | 301 |
| C[C@@H]1C[C@H](C)CN(S(=O)(=O)Oc2cccc(Nc3ccc4c(c3)C(=O)N(C3CCC(=O)NC3=O)C4=O)c2)C1 (stereo partly shown) [FL1-6] | 3030 |
| CC1(C)CN(S(=O)(=O)Oc2cccc(Nc3ccc4c(c3)C(=O)N(C3CCC(=O)NC3=O)C4=O)c2)CCS1(=O)=O (stereo not shown) [FL1-7] | 522 |
| CC1(C)CN(S(=O)(=O)Oc2cccc(Nc3ccc4c(c3)C(=O)N(C3CCC(=O)NC3=O)C4=O)c2)CC2(CCOC2)O1 (stereo not shown) [FL1-8] | 930 |
| O=C1CCC(N2C(=O)c3ccc(Nc4cccc(OS(=O)(=O)N5CC6(CNC(=O)N6)C5)c4)cc3C2=O)C(=O)N1 (stereo not shown) [FL1-9] | 435 |
| O=C1CCC(N2C(=O)c3ccc(Nc4cccc(OS(=O)(=O)N5C[C@@H](F)[C@H](F)C5)c4)cc3C2=O)C(=O)N1 (stereo partly shown) [FL1-10] | 607 |
| CN(Cc1ncnn1C)S(=O)(=O)Oc1cccc(Nc2ccc3c(c2)C(=O)N(C2CCC(=O)NC2=O)C3=O)c1 (stereo not shown) [FL1-11] | 509 |
| Cc1cn2c(n1)CN(S(=O)(=O)Oc1cccc(Nc3ccc4c(c3)C(=O)N(C3CCC(=O)NC3=O)C4=O)c1)CC2 (stereo not shown) [FL1-13] | 482 |
| CN(Cc1ccc2[nH]nnc2c1)S(=O)(=O)Oc1cccc(Nc2ccc3c(c2)C(=O)N(C2CCC(=O)NC2=O)C3=O)c1 (stereo not shown) [FL1-15] | 1170 |
| O=C1CCC(N2C(=O)c3ccc(Nc4cccc(OS(=O)(=O)N5CCC(c6ccncc6)CC5)c4)cc3C2=O)C(=O)N1 (stereo not shown) [FL1-16] | 682 |
| CC1c2cc(F)ccc2CCN1S(=O)(=O)Oc1cccc(Nc2ccc3c(c2)C(=O)N(C2CCC(=O)NC2=O)C3=O)c1 (stereo not shown) [FL1-17] | 1840 |
| CC1c2cccn2CCN1S(=O)(=O)Oc1cccc(Nc2ccc3c(c2)C(=O)N(C2CCC(=O)NC2=O)C3=O)c1 (stereo not shown) [FL1-19] | 898 |
| CN(Cc1ccc2c(c1)OCO2)S(=O)(=O)Oc1cccc(Nc2ccc3c(c2)C(=O)N(C2CCC(=O)NC2=O)C3=O)c1 (stereo not shown) [FL1-20] | 1470 |
| CN(C1CC1)S(=O)(=O)Oc1cccc(Nc2ccc3c(c2)C(=O)N(C2CCC(=O)NC2=O)C3=O)c1 (stereo not shown) [FL1-21] | 1050 |
| C[C@@H](O)CN(C)S(=O)(=O)Oc1ccc(Nc2ccc3c(c2)C(=O)N(C2CCC(=O)NC2=O)C3=O)cc1 (stereo partly shown) [FL2-1] | 445 |
| O=C1CCC(N2C(=O)c3ccc(Nc4ccc(OS(=O)(=O)N5CC(CCO)C5)cc4)cc3C2=O)C(=O)N1 (stereo not shown) [FL2-2] | 675 |
| CC(C)(O)C1CCN(S(=O)(=O)Oc2ccc(Nc3ccc4c(c3)C(=O)N(C3CCC(=O)NC3=O)C4=O)cc2)C1 (stereo not shown) [FL2-4] | 770 |
| O=C1CCC(N2C(=O)c3ccc(Nc4ccc(OS(=O)(=O)N5CCOCC5)cc4)cc3C2=O)C(=O)N1 (stereo not shown) [FL2-5] | 458 |
| C[C@@H]1C[C@H](C)CN(S(=O)(=O)Oc2ccc(Nc3ccc4c(c3)C(=O)N(C3CCC(=O)NC3=O)C4=O)cc2)C1 (stereo partly shown) [FL2-6] | 4220 |

| Compound | EC50 [nM] |
| --- | --- |
| CC1(C)CN(S(=O)(=O)Oc2ccc(Nc3ccc4c(c3)C(=O)N(C3CCC(=O)NC3=O)C4=O)cc2)CCS1(=O)=O (stereo not shown) [FL2-7] | 731 |
| CC1(C)CN(S(=O)(=O)Oc2ccc(Nc3ccc4c(c3)C(=O)N(C3CCC(=O)NC3=O)C4=O)cc2)CC2(CCOC2)O1 (stereo not shown) [FL2-8] | 2590 |
| O=C1CCC(N2C(=O)c3ccc(Nc4ccc(OS(=O)(=O)N5CC6(CNC(=O)N6)C5)cc4)cc3C2=O)C(=O)N1 (stereo not shown) [FL2-9] | 414 |
| O=C1CCC(N2C(=O)c3ccc(Nc4ccc(OS(=O)(=O)N5C[C@@H](F)[C@H](F)C5)cc4)cc3C2=O)C(=O)N1 (stereo partly shown) [FL2-10] | 1270 |
| CN(Cc1ncnn1C)S(=O)(=O)Oc1ccc(Nc2ccc3c(c2)C(=O)N(C2CCC(=O)NC2=O)C3=O)cc1 (stereo not shown) [FL2-11] | 617 |
| O=C1CCC(N2C(=O)c3ccc(Nc4ccc(OS(=O)(=O)N5CCC(c6ccco6)C5)cc4)cc3C2=O)C(=O)N1 (stereo not shown) [FL2-12] | 4780 |
| Cc1cn2c(n1)CN(S(=O)(=O)Oc1ccc(Nc3ccc4c(c3)C(=O)N(C3CCC(=O)NC3=O)C4=O)cc1)CC2 (stereo not shown) [FL2-13] | 526 |
| CN(Cc1ccc2[nH]nnc2c1)S(=O)(=O)Oc1ccc(Nc2ccc3c(c2)C(=O)N(C2CCC(=O)NC2=O)C3=O)cc1 (stereo not shown) [FL2-15] | 1650 |
| O=C1CCC(N2C(=O)c3ccc(Nc4ccc(OS(=O)(=O)N5CCC(c6ccncc6)CC5)cc4)cc3C2=O)C(=O)N1 (stereo not shown) [FL2-16] | 1970 |
| CC1c2cc(F)ccc2CCN1S(=O)(=O)Oc1ccc(Nc2ccc3c(c2)C(=O)N(C2CCC(=O)NC2=O)C3=O)cc1 (stereo not shown) [FL2-17] | 1290 |
| CN(C)c1ncc(CN(C)S(=O)(=O)Oc2ccc(Nc3ccc4c(c3)C(=O)N(C3CCC(=O)NC3=O)C4=O)cc2)cn1 (stereo not shown) [FL2-18] | 872 |
| CC1c2cccn2CCN1S(=O)(=O)Oc1ccc(Nc2ccc3c(c2)C(=O)N(C2CCC(=O)NC2=O)C3=O)cc1 (stereo not shown) [FL2-19] | 1050 |
| CN(Cc1ccc2c(c1)OCO2)S(=O)(=O)Oc1ccc(Nc2ccc3c(c2)C(=O)N(C2CCC(=O)NC2=O)C3=O)cc1 (stereo not shown) [FL2-20] | 2620 |
| CN(C1CC1)S(=O)(=O)Oc1ccc(Nc2ccc3c(c2)C(=O)N(C2CCC(=O)NC2=O)C3=O)cc1 (stereo not shown) [FL2-21] | 1140 |
| CC(O)CN(C)S(=O)(=O)Oc1cccc(Nc2cccc3c2C(=O)N(C2CCC(=O)NC2=O)C3=O)c1 (stereo not shown) [FL3-1] | 301 |
| O=C1CCC(N2C(=O)c3cccc(Nc4cccc(OS(=O)(=O)N5CC(CCO)C5)c4)c3C2=O)C(=O)N1 (stereo not shown) [FL3-2] | 408 |
| CC(C)(O)C1CCN(S(=O)(=O)Oc2cccc(Nc3cccc4c3C(=O)N(C3CCC(=O)NC3=O)C4=O)c2)C1 (stereo not shown) [FL3-4] | 446 |
| O=C1CCC(N2C(=O)c3cccc(Nc4cccc(OS(=O)(=O)N5CCOCC5)c4)c3C2=O)C(=O)N1 (stereo not shown) [FL3-5] | 214 |
| C[C@@H]1C[C@H](C)CN(S(=O)(=O)Oc2cccc(Nc3cccc4c3C(=O)N(C3CCC(=O)NC3=O)C4=O)c2)C1 (stereo partly shown) [FL3-6] | 2770 |
| CC1(C)CN(S(=O)(=O)Oc2cccc(Nc3cccc4c3C(=O)N(C3CCC(=O)NC3=O)C4=O)c2)CCS1(=O)=O (stereo not shown) [FL3-7] | 348 |
| CC1(C)CN(S(=O)(=O)Oc2cccc(Nc3cccc4c3C(=O)N(C3CCC(=O)NC3=O)C4=O)c2)CC2(CCOC2)O1 (stereo not shown) [FL3-8] | 911 |

| Compound | EC50 [nM] |
| --- | --- |
| O=C1CCC(N2C(=O)c3cccc(Nc4cccc(OS(=O)(=O)N5CC6(CNC(=O)N6)C5)c4)c3C2=O)C(=O)N1 (stereo not shown) [FL3-9] | 330 |
| O=C1CCC(N2C(=O)c3cccc(Nc4cccc(OS(=O)(=O)N5C[C@@H](F)[C@H](F)C5)c4)c3C2=O)C(=O)N1 (stereo partly shown) [FL3-10] | 582 |
| CN(Cc1ncnn1C)S(=O)(=O)Oc1cccc(Nc2cccc3c2C(=O)N(C2CCC(=O)NC2=O)C3=O)c1 (stereo not shown) [FL3-11] | 449 |
| O=C1CCC(N2C(=O)c3cccc(Nc4cccc(OS(=O)(=O)N5CCC(c6ccco6)C5)c4)c3C2=O)C(=O)N1 (stereo not shown) [FL3-12] | 2700 |
| Cc1cn2c(n1)CN(S(=O)(=O)Oc1cccc(Nc3cccc4c3C(=O)N(C3CCC(=O)NC3=O)C4=O)c1)CC2 (stereo not shown) [FL3-13] | 472 |
| CN(Cc1ncc(C2CC2)o1)S(=O)(=O)Oc1cccc(Nc2cccc3c2C(=O)N(C2CCC(=O)NC2=O)C3=O)c1 (stereo not shown) [FL3-14] | 882 |
| CN(Cc1ccc2[nH]nnc2c1)S(=O)(=O)Oc1cccc(Nc2cccc3c2C(=O)N(C2CCC(=O)NC2=O)C3=O)c1 (stereo not shown) [FL3-15] | 990 |
| O=C1CCC(N2C(=O)c3cccc(Nc4cccc(OS(=O)(=O)N5CCC(c6ccncc6)CC5)c4)c3C2=O)C(=O)N1 (stereo not shown) [FL3-16] | 264 |
| CC1c2cc(F)ccc2CCN1S(=O)(=O)Oc1cccc(Nc2cccc3c2C(=O)N(C2CCC(=O)NC2=O)C3=O)c1 (stereo not shown) [FL3-17] | 1310 |
| CN(C)c1ncc(CN(C)S(=O)(=O)Oc2cccc(Nc3cccc4c3C(=O)N(C3CCC(=O)NC3=O)C4=O)c2)cn1 (stereo not shown) [FL3-18] | 676 |
| CC1c2cccn2CCN1S(=O)(=O)Oc1cccc(Nc2cccc3c2C(=O)N(C2CCC(=O)NC2=O)C3=O)c1 (stereo not shown) [FL3-19] | 742 |
| CN(Cc1ccc2c(c1)OCO2)S(=O)(=O)Oc1cccc(Nc2cccc3c2C(=O)N(C2CCC(=O)NC2=O)C3=O)c1 (stereo not shown) [FL3-20] | 1570 |
| CN(C1CC1)S(=O)(=O)Oc1cccc(Nc2cccc3c2C(=O)N(C2CCC(=O)NC2=O)C3=O)c1 (stereo not shown) [FL3-21] | 1020 |
| CC(O)CN(C)S(=O)(=O)Oc1ccc(Nc2cccc3c2C(=O)N(C2CCC(=O)NC2=O)C3=O)cc1 (stereo not shown) [FL4-1] | 370 |
| O=C1CCC(N2C(=O)c3cccc(Nc4ccc(OS(=O)(=O)N5CC(CCO)C5)cc4)c3C2=O)C(=O)N1 (stereo not shown) [FL4-2] | 557 |
| CC(C)(O)C1CCN(S(=O)(=O)Oc2ccc(Nc3cccc4c3C(=O)N(C3CCC(=O)NC3=O)C4=O)cc2)C1 (stereo not shown) [FL4-4] | 688 |
| O=C1CCC(N2C(=O)c3cccc(Nc4ccc(OS(=O)(=O)N5CCOCC5)cc4)c3C2=O)C(=O)N1 (stereo not shown) [FL4-5] | 652 |
| C[C@@H]1C[C@H](C)CN(S(=O)(=O)Oc2ccc(Nc3cccc4c3C(=O)N(C3CCC(=O)NC3=O)C4=O)cc2)C1 (stereo partly shown) [FL4-6] | 3650 |
| CC1(C)CN(S(=O)(=O)Oc2ccc(Nc3cccc4c3C(=O)N(C3CCC(=O)NC3=O)C4=O)cc2)CCS1(=O)=O (stereo not shown) [FL4-7] | 741 |
